Experimental data taken from ChEMBL document CHEMBL1201862, “PubChem BioAssay data set” (2004).
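Cultured in 96-well plates, cells were exposed to test compound for 48 hours across five concentrations. GI50: concentration for 50% inhibition of growth.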 Active and inactive are the calls of the source. Cut-off read from the data, not from the text of the source: active = GI50 up to about 1.1 µM and inactive = higher.

Legend:
Test in all cases: NCI tumour cell line growth inhibition, 48 h
OVCAR-8 = system: OVCAR-8
SNB-75 = system: SNB-75
DMS-273 = system: DMS-273
SK-MEL-28 = system: SK-MEL-28
RXF 393 = system: RXF 393
OVCAR-4 = system: OVCAR-4
HOP-62 = system: HOP-62
HOP-18 = system: HOP-18
UO-31 = system: UO-31
UACC-62 = system: UACC-62
K562 = system: K562
SK-MEL-5 = system: SK-MEL-5
OVCAR-5 = system: OVCAR-5
U-251 = system: U-251
HCT-116 = system: HCT-116
CCRF-CEM = system: CCRF-CEM
HOP-92 = system: HOP-92
SF-295 = system: SF-295
M14 = system: M14
OVCAR-3 = system: OVCAR-3
NCI-H522 = system: NCI-H522
HCC 2998 = system: HCC 2998
HCT-15 = system: HCT-15
NCI-H226 = system: NCI-H226
M19-MEL = system: M19-MEL
DLD-1 = system: DLD-1
RXF 631 = system: RXF 631
SK-MEL-2 = system: SK-MEL-2
A549 = system: A549
LXFL 529 = system: LXFL 529
UACC-257 = system: UACC-257
KM12 = system: KM12
EKVX = system: EKVX
DMS-114 = system: DMS-114
TK-10 = system: TK-10
SNB-19 = system: SNB-19
SNB-78 = system: SNB-78
SW-620 = system: SW-620
A498 = system: A498
HL-60 = system: HL-60
SN12C = system: SN12C
COLO 205 = system: COLO 205
SF-268 = system: SF-268
CAKI-1 = system: CAKI-1
NCI-H23 = system: NCI-H23
786-0 = system: 786-0
IGROV-1 = system: IGROV-1
ACHN = system: ACHN
SK-OV-3 = system: SK-OV-3
KM-20L2 = system: KM-20L2
NCI-H460 = system: NCI-H460
HT-29 = system: HT-29
LOX IMVI = system: LOX IMVI
Malme-3M = system: Malme-3M
RPMI-8226 = system: RPMI-8226
SR = system: SR
MOLT-4 = system: MOLT-4
SF-539 = system: SF-539

In the case of `CCCCCCCCCCCCCCCCOC(=O)C(C(=O)OCCCCCCCCCCCCCCCC)[N+](C)(C)CCOC(C)=O`, the GI50 (OVCAR-8) is reported as 17.7 µM (inactive), the GI50 (SNB-75) is reported as 12.9 µM (inactive) and the GI50 (DMS-273) is reported as 9.2 µM (inactive). For the same compound, the GI50 (SK-MEL-28) was 24 µM (inactive), the GI50 (RXF 393) was 2.99 µM (inactive) and the GI50 (OVCAR-4) was 15.9 µM (inactive). For the same compound, the GI50 (HOP-62) was 10.9 µM (inactive), the GI50 (HOP-18) was 16.7 µM (inactive) and the GI50 (UO-31) was 19.7 µM (inactive). The GI50 (UACC-62) was 21.5 µM (inactive), the GI50 (K562) was 19.5 µM (inactive) and the GI50 (SK-MEL-5) was 19.7 µM (inactive). For the same compound, the GI50 (OVCAR-5) was 20.8 µM (inactive), the GI50 (U-251) was 12 µM (inactive) and the GI50 (HCT-116) was 16.4 µM (inactive). The GI50 (CCRF-CEM) was 10.3 µM (inactive), the GI50 (HOP-92) was 2.85 µM (inactive) and the GI50 (SF-295) was 18.1 µM (inactive). The GI50 (M14) was 19.7 µM (inactive), the GI50 (OVCAR-3) was 16.7 µM (inactive) and the GI50 (NCI-H522) was 5.16 µM (inactive). For the same compound, the GI50 (HCC 2998) was 11.4 µM (inactive), the GI50 (HCT-15) was 22.1 µM and the GI50 (NCI-H226) was 18.7 µM (inactive). The GI50 (M19-MEL) was 13.9 µM (inactive), the GI50 (DLD-1) was 14.2 µM (inactive) and the GI50 (RXF 631) was 12.5 µM (inactive). The GI50 (SK-MEL-2) was 20.1 µM (inactive), the GI50 (A549) was 20.5 µM (inactive) and the GI50 (LXFL 529) was 16.1 µM (inactive). The GI50 (UACC-257) was 19.1 µM (inactive), the GI50 (KM12) was 13.7 µM (inactive) and the GI50 (EKVX) was 21 µM (inactive). The GI50 (DMS-114) was 17.9 µM (inactive), the GI50 (TK-10) was 13 µM (inactive) and the GI50 (SNB-19) was 13.4 µM (inactive). For the same compound, the GI50 (SNB-78) was 19.9 µM (inactive), the GI50 (SW-620) was 20.6 µM (inactive) and the GI50 (A498) was 23.6 µM (inactive). The GI50 (HL-60) was 2.11 µM (inactive), the GI50 (SN12C) was 18.4 µM (inactive) and the GI50 (COLO 205) was 15.8 µM (inactive). For the same compound, the GI50 (SF-268) was 17.9 µM (inactive), the GI50 (CAKI-1) was 12.6 µM (inactive) and the GI50 (NCI-H23) was 14.6 µM (inactive). The GI50 (786-0) was 14.3 µM (inactive), the GI50 (IGROV-1) was 3.92 µM (inactive) and the GI50 (ACHN) was 19.2 µM (inactive). For the same compound, the GI50 (SK-OV-3) was 17.8 µM (inactive), the GI50 (KM-20L2) was 18.6 µM (inactive) and the GI50 (NCI-H460) was 28.1 µM (inactive). The GI50 (HT-29) was 11.1 µM (inactive), the GI50 (LOX IMVI) was 21.8 µM (inactive) and the GI50 (Malme-3M) was 21.2 µM (inactive).
For `COc1ccc2c(c1)[n+]([O-])c(-c1ccc(Cl)c(Cl)c1)c(N)[n+]2[O-]`, the GI50 (OVCAR-8) was 34.9 µM (inactive), the GI50 (SNB-75) was 44.7 µM (inactive) and the GI50 (DMS-273) was 23.8 µM (inactive). For the same compound, the GI50 (SK-MEL-28) was 27 µM (inactive), the GI50 (OVCAR-4) was 28.7 µM (inactive) and the GI50 (HOP-62) was 60.8 µM (inactive). The GI50 (RPMI-8226) was 31.3 µM (inactive), the GI50 (HOP-18) was 24.3 µM (inactive) and the GI50 (UO-31) was 39.7 µM (inactive). For the same compound, the GI50 (K562) was 40.7 µM (inactive), the GI50 (SK-MEL-5) was 16.5 µM (inactive) and the GI50 (SR) was 45 µM (inactive). The GI50 (OVCAR-5) was 36.8 µM (inactive), the GI50 (U-251) was 35.1 µM (inactive) and the GI50 (HCT-116) was 42.9 µM (inactive). The GI50 (MOLT-4) was 37.5 µM (inactive), the GI50 (HOP-92) was > 100 µM (inactive) and the GI50 (SF-295) was 78.3 µM (inactive). For the same compound, the GI50 (M14) was 25.7 µM (inactive), the GI50 (OVCAR-3) was 26.1 µM (inactive) and the GI50 (NCI-H522) was 14.3 µM (inactive). For the same compound, the GI50 (HCT-15) was 33.3 µM, the GI50 (NCI-H226) was 45.1 µM (inactive) and the GI50 (M19-MEL) was 28.8 µM (inactive). For the same compound, the GI50 (DLD-1) was 33.9 µM (inactive), the GI50 (RXF 631) was 21.3 µM (inactive) and the GI50 (SK-MEL-2) was 19.9 µM (inactive). For the same compound, the GI50 (A549) was 30.3 µM (inactive), the GI50 (LXFL 529) was 35.6 µM (inactive) and the GI50 (UACC-257) was 16.4 µM (inactive). The GI50 (KM12) was 34.3 µM (inactive), the GI50 (EKVX) was 33.6 µM (inactive) and the GI50 (DMS-114) was 16.3 µM (inactive). The GI50 (SNB-19) was > 100 µM (inactive), the GI50 (SNB-78) was 53.6 µM (inactive) and the GI50 (SW-620) was 38.9 µM (inactive). The GI50 (A498) was 47.5 µM (inactive), the GI50 (HL-60) was 23.7 µM (inactive) and the GI50 (SN12C) was 46.1 µM (inactive). For the same compound, the GI50 (COLO 205) was 19 µM (inactive), the GI50 (SF-268) was 37.1 µM (inactive) and the GI50 (CAKI-1) was 37.9 µM (inactive). The GI50 (NCI-H23) was 15.8 µM (inactive), the GI50 (SF-539) was 23 µM (inactive) and the GI50 (786-0) was 36.7 µM (inactive). The GI50 (IGROV-1) was 27 µM (inactive), the GI50 (ACHN) was 42.6 µM (inactive) and the GI50 (SK-OV-3) was 55.1 µM (inactive). For the same compound, the GI50 (KM-20L2) was 32.3 µM (inactive), the GI50 (NCI-H460) was 25.1 µM (inactive) and the GI50 (HT-29) was 37.5 µM (inactive). For the same compound, the GI50 (Malme-3M) was 23.6 µM (inactive).
With `CS(=O)(=O)NNS(=O)(=O)c1ccc(F)cc1` the GI50 (OVCAR-8) was > 100 µM (inactive), the GI50 (SNB-75) was > 100 µM (inactive) and the GI50 (DMS-273) was > 100 µM (inactive). For the same compound, the GI50 (RXF 393) was > 100 µM (inactive), the GI50 (OVCAR-4) was > 100 µM (inactive) and the GI50 (HOP-62) was > 100 µM (inactive). For the same compound, the GI50 (RPMI-8226) was > 100 µM (inactive), the GI50 (UO-31) was > 100 µM (inactive) and the GI50 (UACC-62) was > 100 µM (inactive). The GI50 (K562) was > 100 µM (inactive), the GI50 (SK-MEL-5) was > 100 µM (inactive) and the GI50 (SR) was > 100 µM (inactive). The GI50 (U-251) was > 100 µM (inactive), the GI50 (HCT-116) was > 100 µM (inactive) and the GI50 (CCRF-CEM) was > 100 µM (inactive). The GI50 (MOLT-4) was > 100 µM (inactive), the GI50 (SF-295) was > 100 µM (inactive) and the GI50 (M14) was > 100 µM (inactive). The GI50 (OVCAR-3) was > 100 µM (inactive), the GI50 (NCI-H522) was > 100 µM (inactive) and the GI50 (HCC 2998) was > 100 µM (inactive). The GI50 (HCT-15) was over 100 µM, the GI50 (NCI-H226) was > 100 µM (inactive) and the GI50 (M19-MEL) was > 100 µM (inactive). For the same compound, the GI50 (DLD-1) was > 100 µM (inactive), the GI50 (RXF 631) was > 100 µM (inactive) and the GI50 (SK-MEL-2) was > 100 µM (inactive). For the same compound, the GI50 (A549) was > 100 µM (inactive), the GI50 (LXFL 529) was > 100 µM (inactive) and the GI50 (UACC-257) was > 100 µM (inactive). For the same compound, the GI50 (KM12) was > 100 µM (inactive), the GI50 (EKVX) was > 100 µM (inactive) and the GI50 (DMS-114) was > 100 µM (inactive). The GI50 (TK-10) was > 100 µM (inactive), the GI50 (SNB-19) was > 100 µM (inactive) and the GI50 (SW-620) was > 100 µM (inactive). The GI50 (A498) was > 100 µM (inactive), the GI50 (HL-60) was > 100 µM (inactive) and the GI50 (SN12C) was > 100 µM (inactive). The GI50 (COLO 205) was > 100 µM (inactive), the GI50 (SF-268) was > 100 µM (inactive) and the GI50 (CAKI-1) was > 100 µM (inactive). For the same compound, the GI50 (NCI-H23) was > 100 µM (inactive), the GI50 (SF-539) was > 100 µM (inactive) and the GI50 (786-0) was > 100 µM (inactive). The GI50 (IGROV-1) was > 100 µM (inactive), the GI50 (ACHN) was > 100 µM (inactive) and the GI50 (KM-20L2) was > 100 µM (inactive). For the same compound, the GI50 (NCI-H460) was > 100 µM (inactive), the GI50 (HT-29) was > 100 µM (inactive) and the GI50 (LOX IMVI) was > 100 µM (inactive). The GI50 (Malme-3M) was > 100 µM (inactive).
